Tested on: Caco-2 cell line
Assay: Caco-2 permeability testing
Format: in vitro ADME, human
Parameters: Efflux (first figure of Efflux/permeability), Papp (B-A) / Permeability (second figure of Efflux/permeability), Papp (A-B): unit not given here
Settings: for Permeability (second figure of Efflux/permeability), Papp (A-B): Caco-2, A-B; for Permeability (second figure of Efflux/permeability), Papp (A-B) / Efflux (first figure of Efflux/permeability), Papp (B-A): 90 min; for Efflux (first figure of Efflux/permeability), Papp (B-A): Caco-2, B-A; for intestinal absorption predicted by in vitro PK profiles: in words
Method in brief: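 Caco-2 monolayers grown 21-27 days in MEM + 10% FBS + 1% NEAA; bidirectional transport (A-B, B-A) in HBSS with 25 mM HEPES, pH 7.4, 10 μM compound donor with 5 μM Lucifer Yellow as monolayer marker. Papp measured each direction, quantified against standard curve with internal standard; efflux ratio Papp(B-A)/Papp(A-B).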

Structure (SMILES)	Permeability (second figure of Efflux/permeability), Papp (A-B)	Efflux (first figure of Efflux/permeability), Papp (B-A)	Efflux/Permeability ratio (desired <3) (Caco-2, Papp (B-A)/Papp (A-B))	intestinal absorption predicted by in vitro PK profiles
Cn1nc(C(=O)NC2CCN(CCN3CCCCC3)CC2)c2ccc(N3CCCCCC3)nc21 [EBP1047]	11	8	0.8	moderate intestinal absorption
CCN1CCC(NC(=O)c2nn(C)c3nc(N4CCCCCC4)ccc23)CC1 [EBP1595]	15	14	–	moderate intestinal absorption
Cn1nc(C(=O)NC2CCN(CCN3CCCC3)CC2)c2ccc(N3CCCCCC3)nc21 [EBP1597]	9	7	–	moderate intestinal absorption
CC(C)N1CCC(NC(=O)c2nn(C)c3nc(N4CCCCCC4)ccc23)CC1 [EBP1604]	–	–	–	moderate intestinal absorption
